Reference: patent publication US9474275B2, “Cyanoenamines and their use as fungicides” (priority 2010, dated 2016)
Marks after values point to notes of the source that are not given here.

Test system: Phytophthora infestans
Assay: not given
Format: in vivo
Conditions: tomato plants, preventive spray, 500 ppm of active ingredient, evaluated 7 days after inoculation; 0% = untreated control, 100% = no disease

Row | Compound | efficacy
1 | CC(NC(=C(C#N)C(=O)C1CC1)c1cn(C)nc1C(F)F)C1CC1 (stereo not drawn) [Compound 59] | 90%
2 | COCCC(=O)C(C#N)=C(NC(C)C(C)C)c1cn(C)nc1C(F)F (stereo not drawn) [Compound 62] | 75%
3 | CC(NC(=C(C#N)C(=O)CC1CC1)c1cn(C)nc1C(F)F)C1CC1 (stereo not drawn) [Compound 64] | 98%
4 | CC(NC(=C(C#N)C(=O)C1CCC1)c1cn(C)nc1C(F)F)C1CC1 (stereo not drawn) [Compound 70] | 80%
5 | CCC1CC1NC(=C(C#N)C(=O)CC1CC1)c1cccnc1Cl (stereo not drawn) [Compound 72] | 100%
6 | C=CCCC(=O)C(C#N)=C(NC(C)C(C)C)c1cccnc1Cl (stereo not drawn) [Compound 73] | 80%
7 | CC=CC(=O)C(C#N)=C(NC(C)C(C)C)c1cccnc1Cl (stereo not drawn) [Compound 75] | 90%
8 | CCCC(=O)C(C#N)=C(NC(C)c1nccs1)c1cn(C)nc1C(F)F (stereo not drawn) [Compound 80] | 95%
9 | CC(NC(=C(C#N)C(=O)CC1CC1)c1cn(C)nc1C(F)F)c1nccs1 (stereo not drawn) [Compound 81] | 95%
10 | CCCC(=O)C(C#N)=C(NC(C)COC)c1cccnc1Cl (stereo not drawn) [Compound 83] | 100%
11 | CCCC(=O)C(C#N)=C(NC(C)C(C)(C)C)c1cn(C)nc1C(F)F (stereo not drawn) [Compound 84] | 100%
12 | CCCC(=O)C(C#N)=C(NC(C)c1ccsn1)c1cccnc1Cl (stereo not drawn) [Compound 85] | 97%
13 | CCCC(=O)C(C#N)=C(NC(C)COCC)c1cccnc1Cl (stereo not drawn) [Compound 86] | 97%
14 | CCCC(=O)C(C#N)=C(NC(C)C(C)(C)C)c1cccnc1Cl (stereo not drawn) [Compound 87] | 100%
15 | CCCC(=O)C(C#N)=C(NC(C)c1ccsn1)c1cn(C)nc1C(F)F (stereo not drawn) [Compound 88] | 97%
16 | CCCC(=O)C(C#N)=C(NC(C)C(C)C)c1ccc(Cl)nc1Cl (stereo not drawn) [Compound 90] | 97%
17 | CCCC(=O)C(C#N)=C(NC(C)COC)c1cccnc1C (stereo not drawn) [Compound 91] | 100%
18 | CCCC(=O)C(C#N)=C(NC(C)COC)c1ccnn1C(F)F (stereo not drawn) [Compound 98] | 100%
19 | CCCC(=O)C(C#N)=C(NC1(CC2CC2)CC1)c1cccnc1Cl [Compound 101] | 95%
20 | CCCC(=O)C(C#N)=C(NC1CCC1)c1cccnc1Cl [Compound 102] | 80%
21 | CCCC(=O)C(C#N)=C(NC(C)c1c(F)cccc1F)c1cccnc1Cl (stereo not drawn) [Compound 106] | 75%
22 | CCCC(=O)C(C#N)=C(NC(C)c1c(F)cccc1F)c1cn(C)nc1C(F)F (stereo not drawn) [Compound 110] | 95%
23 | CCCC(=O)C(C#N)=C(NC1(CC2CC2)CC1)c1cn(C)nc1C(F)F [Compound 119] | 93%
24 | CCCC(=O)C(C#N)=C(NC1CCC1)c1cn(C)nc1C(F)F [Compound 120] | 90%

Test system: Plasmopara viticola
Assay: Plasmopara test (grapevines) / preventive
Format: in vivo
Conditions: grapevine plants, preventive spray, 100 ppm of active ingredient, evaluated 6 days after inoculation; 0% = untreated control, 100% = no disease
Method: Solvent: 24.5 parts by weight of acetone • 24.5 parts by weight of dimethylacetamide
Emulsifier: 1 part by weight of alkylaryl polyglycol ether
To produce a suitable preparation of active compound, 1 part by weight of active compound is mixed with the stated amounts of solvent and emulsifier, and the concentrate is diluted with water to the desired concentration. To test for preventive activity, young plants are sprayed with the preparation of active compound at the stated rate of application. After the spray coating has dried on, the plants are inoculated with an aqueous spore suspension of Plasmopara viticola and then remain for 1 day in an incubation cabinet at approximately 20° C. and a relative atmospheric humidity of 100%. The plant is subsequently placed for 4 days in a greenhouse at approximately 21° C. and a relative atmospheric humidity of approximately 90%. The plants are then misted and placed for 1 day in an incubation cabinet. The test is evaluated 6 days after the inoculation. 0% means an efficacy which corresponds to that of the untreated control, while an efficacy of 100% means that no disease is observed.

Row | Compound | efficacy
25 | CC(NC(=C(C#N)C(=O)CC1CC1)c1cn(C)nc1C(F)F)C1CC1 (stereo not drawn) [Compound 64] | 94%
26 | CC=CC(=O)C(C#N)=C(NC(C)C(C)C)c1cccnc1Cl (stereo not drawn) [Compound 75] | 88%
27 | CCCC(=O)C(C#N)=C(NC(C)c1nccs1)c1cn(C)nc1C(F)F (stereo not drawn) [Compound 80] | 94%
28 | CC(NC(=C(C#N)C(=O)CC1CC1)c1cn(C)nc1C(F)F)c1nccs1 (stereo not drawn) [Compound 81] | 92%
29 | CCCC(=O)C(C#N)=C(NC(C)COC)c1cccnc1Cl (stereo not drawn) [Compound 83] | 100%
30 | CCCC(=O)C(C#N)=C(NC(C)C(C)(C)C)c1cn(C)nc1C(F)F (stereo not drawn) [Compound 84] | 89%
31 | CCCC(=O)C(C#N)=C(NC(C)c1ccsn1)c1cccnc1Cl (stereo not drawn) [Compound 85] | 87%
32 | CCCC(=O)C(C#N)=C(NC(C)COCC)c1cccnc1Cl (stereo not drawn) [Compound 86] | 90%
33 | CCCC(=O)C(C#N)=C(NC(C)C(C)(C)C)c1cccnc1Cl (stereo not drawn) [Compound 87] | 100%
34 | CCCC(=O)C(C#N)=C(NC(C)c1ccsn1)c1cn(C)nc1C(F)F (stereo not drawn) [Compound 88] | 100%
35 | CCCC(=O)C(C#N)=C(NC(C)C(C)C)c1ccc(Cl)nc1Cl (stereo not drawn) [Compound 90] | 96%
36 | CCCC(=O)C(C#N)=C(NC(C)COC)c1ccnn1C(F)F (stereo not drawn) [Compound 98] | 94%

Test system: not given
Assay: not given
Conditions: pH 2.7

Row | Compound | LogP
37 | CC(C)C(C)NC(=C(C#N)C(=O)C1CCOC1)c1cccnc1Cl (stereo not drawn) [Compound 28] | 2.70^[a]
38 | CC(NC(=C(C#N)C(=O)CC1CC1)c1cn(C)nc1C(F)F)C1CC1 (stereo not drawn) [Compound 64] | 3.04^[a]
39 | CC=CC(=O)C(C#N)=C(NC(C)C(C)C)c1cccnc1Cl (stereo not drawn) [Compound 75] | 3.35^[a]
40 | CCCC(=O)C(C#N)=C(NC(C)c1nccs1)c1cn(C)nc1C(F)F (stereo not drawn) [Compound 80] | 2.59^[a]
41 | CC(NC(=C(C#N)C(=O)CC1CC1)c1cn(C)nc1C(F)F)c1nccs1 (stereo not drawn) [Compound 81] | 2.59^[a]
42 | CCCC(=O)C(C#N)=C(NC(C)C(C)(C)C)c1cn(C)nc1C(F)F (stereo not drawn) [Compound 84] | 3.55^[a]
43 | CCCC(=O)C(C#N)=C(NC(C)c1ccsn1)c1cn(C)nc1C(F)F (stereo not drawn) [Compound 88] | 2.73^[a]
44 | CCCC(=O)C(C#N)=C(NC(C)C(C)C)c1ccc(Cl)nc1Cl (stereo not drawn) [Compound 90] | 4.31^[a]
45 | CCCC(=O)C(C#N)=C(NC(C)COC)c1ccnn1C(F)F (stereo not drawn) [Compound 98] | 2.73^[a]

Test system: not given
Assay: not given
Conditions: method [a]: LC-MS at pH 2.7, 0.1% formic acid in water / acetonitrile, linear gradient 10% to 95% acetonitrile

Row | Compound | LogP
46 | CC(NC(=C(C#N)C(=O)C1CC1)c1cn(C)nc1C(F)F)C1CC1 (stereo not drawn) [Compound 59] | 2.90^[a]
47 | COCCC(=O)C(C#N)=C(NC(C)C(C)C)c1cn(C)nc1C(F)F (stereo not drawn) [Compound 62] | 2.64^[a]
48 | CC(NC(=C(C#N)C(=O)C1CCC1)c1cn(C)nc1C(F)F)C1CC1 (stereo not drawn) [Compound 70] | 3.25^[a]
49 | CCC1CC1NC(=C(C#N)C(=O)CC1CC1)c1cccnc1Cl (stereo not drawn) [Compound 72] | 3.46^[a]
50 | C=CCCC(=O)C(C#N)=C(NC(C)C(C)C)c1cccnc1Cl (stereo not drawn) [Compound 73] | 3.7^[a]
51 | CCCC(=O)C(C#N)=C(NC(C)COC)c1cccnc1C (stereo not drawn) [Compound 91] | 2.14^[a]
52 | CCCC(=O)C(C#N)=C(NC1(CC2CC2)CC1)c1cccnc1Cl [Compound 101] | 3.79^[a]
53 | CCCC(=O)C(C#N)=C(NC1CCC1)c1cccnc1Cl [Compound 102] | 3.13^[a]
54 | CCCC(=O)C(C#N)=C(NC(C)c1c(F)cccc1F)c1cccnc1Cl (stereo not drawn) [Compound 106] | 3.46^[a]
55 | CCCC(=O)C(C#N)=C(NC(C)c1c(F)cccc1F)c1cn(C)nc1C(F)F (stereo not drawn) [Compound 110] | 3.46^[a]
56 | CCCC(=O)C(C#N)=C(NC1(CC2CC2)CC1)c1cn(C)nc1C(F)F [Compound 119] | 3.44^[a]
57 | CCCC(=O)C(C#N)=C(NC1CCC1)c1cn(C)nc1C(F)F [Compound 120] | 2.88^[a]
